# Values joined by “and” are separate entries in the source; they are usually repeats but may differ in a detail not shown here. Equal values may be shown once. Where a name gives a salt, the structure may show the parent alone.
# B1: lecanemab (antibody, chains of the INN, looked up, V domains shown)
# VH: EVQLVESGGGLVQPGGSLRLSCSASGFTFSSFGMHWVRQAPGKGLEWVAYISSGSSTIYYGDTVKGRFTISRDNAKNSLFLQMSSLRAEDTAVYYCAREGGYYYGRSYYTMDYWGQGTTVTVSS
# VL: DVVMTQSPLSLPVTPGAPASISCRSSQSIVHSNGNTYLEWYLQKPGQSPKLLIYKVSNRFSGVPDRFSGSGSGTDFTLRISRVEAEDVGIYYCFQGSHVPPTFGPGTKLEIK
# Key:
# RAW264.7 macrophages [1] = assay: Cell viability of RAW264.7 macrophages (MTT)
# Description: (§1) The 5 × 10^4 macrophages/well were seeded in the 96-well plate and cultured for 24 h at 37 °C under the humidified atmosphere and 5% CO2. The cells were pre-treated with hispolon (No.1, 2.5, 5, 10, and 20 µM), No.2, No.3, No.4, and No.5 (5, 10, and 20 µM), and No.6 and No.7 (5, 10, 20, and 40 µM) for 24 h. The LPS (500 ng/ml) was then added to the pre-treated RAW264.7 macrophages for another 24 h for nitric oxide productions. For nitric oxide productions in LPS-treated RAW264.7 macrophages, the culture supernatant (100 µl) was mixed with 100 µl of Griess reagent at room temperature for 30 min. The absorbance at 550 nm was measured and expressed as relative nitric oxide productions (the control was recognized as 100%). […] The sample pretreated-RAW264.7 cells were stained with MTT solution (500 µg/mL), which the formazan was dissolved by 200 µL DMSO, and the absorbance at 570 nm was measured, and was expressed relative to the blank (%).
# PC12 cells = assay: Neurite outgrowths in PC12 pheochromocytoma cells; format: cell-based, rat; settings: 3-day treatment, blank 3.62 ± 1.62 μm
# Description: The PC12 cells (5 × 10^3/well) were seeded in poly-L-lysine coated 96-well plate and cultured in RPMI-640 medium supplemented with 10% horse serum, 5% FBS, 100 U/ml penicillin and 100 mg/l streptomycin for 24 h at 37 °C under the humidified atmosphere and 5% CO2. […] The DMSO was used instead of the sample solution as the blank. After an interval of 3 days, the cell morphologies were photographed using an inverted microscope (200-fold magnifications, ECLIPSE TS100, Nikon Instruments Inc., Tokyo, Japan).
# [2] = DPPH radical scavenging activity; format: biochemical; settings: 100 µM DPPH in methanol, 20 min, A517nm; IC50 from linear equation of 20, 50 and 100 µM; read-out: IC50 of DPPH radical scavenging activities
# Description: The 60 µL of different concentrations of samples (10, 20, 50, 100, 150, and 200 µM diluted with DMSO) were added into a 96-well plate, and then 140 µl of 100 µM DPPH in methanol was added under light protection for 20 min. The changes of absorbance at A517nm were measured, and DMSO was used instead of a sample solution in the control group. The scavenging activity of the DPPH radical (%) was calculated with the following equation: (Control-sample)/control ×100%.
# RAW264.7 macrophages [3] = assay: Anti-nitric oxide productions in lipopolysaccharide-treated RAW264.7 macrophages (Griess); format: cell-based; settings: 2.5 µM, 24 h pre-treatment, then LPS 500 ng/ml 24 h
# Description: as §1
# Aβ1-42 peptide = molecular target: T1, Aβ1-42 peptide (Homo sapiens, UniProt P05067); assay: Anti-Aβ1-42 peptide aggregation, thioflavin T binding assay; format: biochemical; settings: 10 µM Aβ1-42, 10 µM ThT, 37 °C, 24 h; read-out: IC50 of anti-Aβ1-42 peptide aggregations
# T1 construct: The preparation of Aβ1–42 peptide stock solution was following the previous report; purchased Sigma Chemical Co. (St. Louis, MO)
# Description: The DMSO was used instead of the sample solution as the control. […] The inhibition against Aβ aggregation (%) was calculated as [(Econtrol,24−h-Econtrol,0−h)- (Esample,24−h-Esample,0−h)/(Econtrol,24 h-Econtrol,0−h)] ×100%.
# [4] = test system: scopolamine-induced ICR mice; assay: Passive avoidance test in scopolamine-induced cognitive dysfunction ICR mice; format: in vivo; settings: scopolamine 1 mg/kg i.p., P < 0.05
# Description: The 5-week-old (N = 30) male ICR mice were purchased from the Laboratory Animal Center in College of Medicine, National Taiwan University, and were housed in wire-bottomed stainless-steel cages and had free access to normal feeds (Prolab^Ⓡ RMH2500, MO) and water, which these cages were placed in an environmental controlled space under a 12-h light/dark cycle. After at least one-week acclimation, the mice were randomly divided into six groups, including the blank, the control, the positive control (donepezil-intervened), and the sample pre-treated groups (No.1, No.6, and No.7 groups). […] For mice in the blank, the control, and the positive control, mice were orally received the same volume of distilled water once daily for 10 days in the parallel experiments. In the second stage of animal experiments during day 11 to day 15, mice in the blank, the control, and the sample groups were treated as reported in the first stage, and mice in the positive control group were treated with donepezil (5 mg/kg) orally once a day by gavage feeding, and 30 min later, mice in the control, sample groups, and positive control were injected intraperitoneally with scopolamine (1 mg/kg, dissolved in PBS), and mice in the blank were injected with the same volume of PBS. At day 13 to day 15, after being injected with scopolamine or the same volume of PBS for 30 min, mice in each group were evaluated learning behaviours by the passive avoidance test. The passive avoidance apparatus, a computerized chamber (PACS-30, Columbus Instruments Inc., Columbus, OH) separated by a sliding guillotine door, is composed of a LED light box and a dark box. At the first day of the acquisition trial (day 13), the guillotine door was opened and each mouse was placed in the LED light box. In case the mouse entered the dark box, the automatic and computerized sliding guillotine door was closed, the entered mouse in the dark box received an electric foot shock (0.3 mA for 3 s) delivered via the wired metal floor and then sent back to the cage. The staying time in the light box (the step-through latency, sec) was recorded. The protocol in the second day (day 14) was the same as the first day. If the mouse stayed in the light box longer than 300 s, and the mouse was expelled into light box and received the same electric foot shocks. At the third day (day 15) of the retention trial, each mouse was placed again in the light box, and the staying time in the light box was recorded. The maximum time was 300 s.
# recombinant human AChE = molecular target: T2, recombinant human AChE (Homo sapiens, UniProt P22303); assay: biochemical; settings: pH 7.5, tested at 125 to 1000 µM, read-out: AChE inhibitory activity IC50
# T2 construct: purchased R&D Systems Inc. (Minneapolis, MN)
# Description: The AChE substrates of acetylthiocholine iodide was added for another 15 min, and the DTNB coupling reagents was added and the mixture was recorded at 405 nm for 10 min. The DMSO instead of sample solution was used as the blank. AChE inhibition (%) was calculated by [(A405blank-A405sample)/(A405blank)] ×100%.
# [5] = test system: SH-SY5Y neuroblastoma cells; assay: Neuroprotective activity in methylglyoxal-treated SH-SY5Y neuronal cells (MTT, morphology); format: cell-based; settings: for cell viabilities of methylglyoxal-treated SH-SY5Y cells compared to the control: 24 h pre-treatment, then 500 µM methylglyoxal 24 h, MTT; for morphologies of methylglyoxal-treated SH-SY5Y cells: 10 µM, 500 µM methylglyoxal, photographs, 200-fold
# Description: The SH-SY5Y cells (1 × 10^4 cells/well) were seeded onto a 96-well microplate and cultured in a DMEM/F-12 medium containing 10% FBS for 24 h at 37 °C under a humidified atmosphere and 5% CO2. The cultural medium was removed, and the different concentrations of hispolon (No.1), No.6, and No.7 or 0.1% DMSO (the control and the blank) were added and incubated at 37 °C in a humidified atmosphere with 5% CO2 for 24 h. The treated medium was removed, washed with PBS, and 500 µM MGO in PBS were added to the medium for another 24 h culture. The equal aliquot of PBS was added in the blank.
# soluble Aβ protofibrils = settings: intravenously every 2 weeks, 10 mg/kg of body weight, 18 months; ref van Dyck et al. [2023]; cited from earlier work
# [6] = 40 mg/kg orally once daily, 10-day pre-treatment and days 11-15
# T2 sequence (P22303 32-614): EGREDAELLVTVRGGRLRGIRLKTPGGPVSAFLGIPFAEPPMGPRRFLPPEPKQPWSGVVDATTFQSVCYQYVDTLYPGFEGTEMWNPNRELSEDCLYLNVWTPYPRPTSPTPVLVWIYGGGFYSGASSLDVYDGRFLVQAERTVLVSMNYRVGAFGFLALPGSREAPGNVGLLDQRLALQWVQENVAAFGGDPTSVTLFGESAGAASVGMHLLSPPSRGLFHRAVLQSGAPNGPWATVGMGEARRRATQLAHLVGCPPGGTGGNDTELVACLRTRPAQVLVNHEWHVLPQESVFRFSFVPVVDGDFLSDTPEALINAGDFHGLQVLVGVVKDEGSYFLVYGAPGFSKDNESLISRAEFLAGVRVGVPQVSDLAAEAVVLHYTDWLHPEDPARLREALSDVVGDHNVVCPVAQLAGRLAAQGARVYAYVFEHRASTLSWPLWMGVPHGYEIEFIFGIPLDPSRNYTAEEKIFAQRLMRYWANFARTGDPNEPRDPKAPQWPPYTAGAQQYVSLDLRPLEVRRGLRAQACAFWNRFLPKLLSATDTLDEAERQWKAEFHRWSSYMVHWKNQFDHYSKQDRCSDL
# T1 sequence (P05067 672-713): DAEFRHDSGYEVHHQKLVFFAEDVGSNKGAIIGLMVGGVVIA
Molecule,average neurite lengths of PC12 cells (PC12 cells; 1 µM) [μm],average neurite lengths of PC12 cells (PC12 cells; 2 µM) [μm],IC50 [2] [µM],IC50 (Aβ1-42 peptide),"step-through latency in the retention trial (day 15) compared to the control [4, 6]",IC50 (recombinant human AChE) [µM],other results
"CC(=O)CC(=O)/C=C/c1ccc(O)c(O)c1 [No.1, Hispolon]",8.02 ± 3.14,8.49 ± 3.61,32.3,1.41 µM,prolong the staying time in the light box,828,"cytotoxicity toward RAW264.7 macrophages (RAW264.7 macrophages [1]; 2.5 µM): no apparent toxicities; cytotoxicity toward RAW264.7 macrophages (RAW264.7 macrophages [1]; 5, 10 and 20 µM): showed cytotoxicities toward RAW264.7 macrophages; relative nitric oxide productions (control = 100%) (RAW264.7 macrophages [3]): 70%; cell viabilities of methylglyoxal-treated SH-SY5Y cells compared to the control ([5]; 5 and 10 µM): no significant difference was found compared to those in the control"
"CC(=O)CC(=O)/C=C/c1cc(O)c(O)c(O)c1 [No.2, 5-hydroxy hispolon]",,,28.3,0.34 µM and 0.335 µM,,> 1000,
"COc1cc(/C=C/C(=O)CC(C)=O)cc(O)c1O [No.3, 5-methoxyhispolon]",,,21,0.35 µM and 0.354 µM,,> 1000,
"COc1cc(/C=C/C(=O)CC(C)=O)cc(OC)c1O [No.4, 5-methoxyhispolon monomethyl ether]",,,79.4,12.4 µM,,> 1000,
"COc1cc(/C=C/C(=O)CC(C)=O)cc(OC)c1OC [No.5, 5-methoxyhispolon dimethyl ether]",,,> 100,> 20 µM,,> 1000,
"CC(=O)CC(=O)/C=C/c1ccc(O)c(O)c1O [No.6, 2-hydroxy hispolon]",8.50 ± 3.48,7.01 ± 3.11,38.2,1.03 µM,prolong the staying time in the light box,286,"morphologies of methylglyoxal-treated SH-SY5Y cells [5]: recover parts of methylglyoxal-damaged neuritic lengths and restore pyramidal shapes; cell viabilities of methylglyoxal-treated SH-SY5Y cells compared to the control ([5]; 1, 2, 5 and 10 µM): had significant differences compared to those in the control"
"COc1c(O)ccc(/C=C/C(=O)CC(C)=O)c1O [No.7, 2-hydroxy hispolon monomethyl ether]",5.40 ± 1.96,8.05 ± 4.69,37.3,0.95 µM and 0.953 µM,prolong the staying time in the light box,> 1000,"morphologies of methylglyoxal-treated SH-SY5Y cells [5]: recover parts of methylglyoxal-damaged neuritic lengths and restore pyramidal shapes; cell viabilities of methylglyoxal-treated SH-SY5Y cells compared to the control ([5]; 1, 2, 5 and 10 µM): had significant differences compared to those in the control"
"COc1cc2c(cc1OC)C(=O)C(CC1CCN(Cc3ccccc3)CC1)C2 (centres unmarked) [donepezil, donepezil hydrochloride, reference compound]",,,,,,,"step-through latency in the retention trial (day 15) compared to the control ([4]; 5 mg/kg orally once a day, days 11-15, positive control): prolong the staying time in the light box"
NGF,,,,,,,"average neurite lengths of PC12 cells (PC12 cells; 100 ng/ml, positive control): 9.18 ± 4.87 μm"
B1,,,,,,,less cognitive decline in CDR-SB change between baseline and last visit compared to placebo (soluble Aβ protofibrils): 27%
